Data published in article PMC12090182, “Repurposing of the RIPK1-Selective Benzo[1,4]oxazepin-4-one Scaffold for the Development of a Type III LIMK1/2 Inhibitor” (ACS Chemical Biology, 2025).
Read-outs that look alike come from different tables or passages of the source.

Tested on: HEK293T cells
Format: cell-based
Conditions: HEK293T
Summary of the method: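 HEK293T and U2OS cells (DMEM) and MRC-9 fibroblasts (EMEM) exposed to compounds at 1 and 10 μM. Live-cell confocal imaging of cell shape and fluorescence before and at 12, 24 and 48 h. Normalized to 0.1% DMSO; biological duplicates with SEM.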

[1] = 1 µM, 0 h after treatment, biological replicate 1
[2] = 1 µM, 0 h after treatment, biological replicate 2
[3] = 1 µM, 12 h after treatment, biological replicate 1
[4] = 1 µM, 12 h after treatment, biological replicate 2
[5] = 1 µM, 24 h after treatment, biological replicate 1
[6] = 1 µM, 24 h after treatment, biological replicate 2
[7] = 1 µM, 48 h after treatment, biological replicate 1
[8] = 1 µM, 48 h after treatment, biological replicate 2
[9] = 10 µM, 0 h after treatment, biological replicate 1
[10] = 10 µM, 0 h after treatment, biological replicate 2
[11] = 10 µM, 12 h after treatment, biological replicate 1
[12] = 10 µM, 12 h after treatment, biological replicate 2
[13] = 10 µM, 24 h after treatment, biological replicate 1
[14] = 10 µM, 24 h after treatment, biological replicate 2
[15] = 10 µM, 48 h after treatment, biological replicate 1
[16] = 10 µM, 48 h after treatment, biological replicate 2

## CC(C)C(=O)Nc1ncc(C(=O)NCCN(Cc2ccccc2)C(=O)c2ccc(S(=O)(=O)Nc3ccccc3)cc2)s1 [TH470]
[1]
  Cell count normalized to cells treated with DMSO control: 0.821
  Cell count per well: 245
  Population Fragmented Nuclei (%): 8.67%
  Population Healthy Nuclei (%): 36.73%
  Population Pyknosed Nuclei (%): 54.59%
  Population apoptotic cell (%): 45.79%
  Population cell that influence microtubule strucutre (%): 23.61%
  Population with increased mitochondrial mass (%): 62.50%
  Population with membrane disruption (%): 0.00%
[2]
  Cell count normalized to cells treated with DMSO control: 1.084
  Cell count per well: 248
  Population Fragmented Nuclei (%): 6.57%
  Population Healthy Nuclei (%): 60.56%
  Population Pyknosed Nuclei (%): 32.86%
  Population apoptotic cell (%): 65.71%
  Population cell that influence microtubule strucutre (%): 23.26%
  Population with increased mitochondrial mass (%): 77.52%
  Population with membrane disruption (%): 0.00%
[3]
  Cell count normalized to cells treated with DMSO control: 0.762
  Cell count per well: 347
  Population Fragmented Nuclei (%): 6.25%
  Population Healthy Nuclei (%): 79.38%
  Population Pyknosed Nuclei (%): 14.38%
  Population apoptotic cell (%): 34.78%
  Population cell that influence microtubule strucutre (%): 27.17%
  Population with increased mitochondrial mass (%): 44.49%
  Population with membrane disruption (%): 0.79%
[4]
  Cell count normalized to cells treated with DMSO control: 1.119
  Cell count per well: 392
  Population Fragmented Nuclei (%): 8.45%
  Population Healthy Nuclei (%): 80.85%
  Population Pyknosed Nuclei (%): 10.70%
  Population apoptotic cell (%): 44.74%
  Population cell that influence microtubule strucutre (%): 20.91%
  Population with increased mitochondrial mass (%): 53.66%
  Population with membrane disruption (%): 0.70%
[5]
  Cell count normalized to cells treated with DMSO control: 0.7629
  Cell count per well: 463
  Population Fragmented Nuclei (%): 9.77%
  Population Healthy Nuclei (%): 77.91%
  Population Pyknosed Nuclei (%): 12.33%
  Population apoptotic cell (%): 49.06%
  Population cell that influence microtubule strucutre (%): 18.21%
  Population with increased mitochondrial mass (%): 28.66%
  Population with membrane disruption (%): 1.49%
[6]
  Cell count normalized to cells treated with DMSO control: 1.065
  Cell count per well: 481
  Population Fragmented Nuclei (%): 9.19%
  Population Healthy Nuclei (%): 81.84%
  Population Pyknosed Nuclei (%): 8.97%
  Population apoptotic cell (%): 42.50%
  Population cell that influence microtubule strucutre (%): 14.25%
  Population with increased mitochondrial mass (%): 34.25%
  Population with membrane disruption (%): 0.55%
[7]
  Cell count normalized to cells treated with DMSO control: 0.791
  Cell count per well: 800
  Population Fragmented Nuclei (%): 15.22%
  Population Healthy Nuclei (%): 78.13%
  Population Pyknosed Nuclei (%): 6.65%
  Population apoptotic cell (%): 21.15%
  Population cell that influence microtubule strucutre (%): 12.27%
  Population with increased mitochondrial mass (%): 18.82%
  Population with membrane disruption (%): 1.47%
[8]
  Cell count normalized to cells treated with DMSO control: 1.233
  Cell count per well: 842
  Population Fragmented Nuclei (%): 13.32%
  Population Healthy Nuclei (%): 80.63%
  Population Pyknosed Nuclei (%): 6.05%
  Population apoptotic cell (%): 22.00%
  Population cell that influence microtubule strucutre (%): 11.71%
  Population with increased mitochondrial mass (%): 13.96%
  Population with membrane disruption (%): 2.70%
[9]
  Cell count normalized to cells treated with DMSO control: 0.9315
  Cell count per well: 278
  Population Fragmented Nuclei (%): 7.95%
  Population Healthy Nuclei (%): 44.77%
  Population Pyknosed Nuclei (%): 47.28%
  Population apoptotic cell (%): 36.28%
  Population cell that influence microtubule strucutre (%): 15.89%
  Population with increased mitochondrial mass (%): 64.49%
  Population with membrane disruption (%): 0.00%
[10]
  Cell count normalized to cells treated with DMSO control: 0.9485
  Cell count per well: 217
  Population Fragmented Nuclei (%): 6.86%
  Population Healthy Nuclei (%): 61.76%
  Population Pyknosed Nuclei (%): 31.37%
  Population apoptotic cell (%): 54.69%
  Population cell that influence microtubule strucutre (%): 26.19%
  Population with increased mitochondrial mass (%): 83.33%
  Population with membrane disruption (%): 0.00%
[11]
  Cell count normalized to cells treated with DMSO control: 0.7906
  Cell count per well: 360
  Population Fragmented Nuclei (%): 7.79%
  Population Healthy Nuclei (%): 76.01%
  Population Pyknosed Nuclei (%): 16.20%
  Population apoptotic cell (%): 50.00%
  Population cell that influence microtubule strucutre (%): 67.21%
  Population with increased mitochondrial mass (%): 73.77%
  Population with membrane disruption (%): 0.00%
[12]
  Cell count normalized to cells treated with DMSO control: 0.8648
  Cell count per well: 303
  Population Fragmented Nuclei (%): 4.80%
  Population Healthy Nuclei (%): 76.38%
  Population Pyknosed Nuclei (%): 18.82%
  Population apoptotic cell (%): 66.67%
  Population cell that influence microtubule strucutre (%): 63.77%
  Population with increased mitochondrial mass (%): 85.02%
  Population with membrane disruption (%): 0.97%
[13]
  Cell count normalized to cells treated with DMSO control: 0.6459
  Cell count per well: 392
  Population Fragmented Nuclei (%): 10.66%
  Population Healthy Nuclei (%): 68.30%
  Population Pyknosed Nuclei (%): 21.04%
  Population apoptotic cell (%): 42.47%
  Population cell that influence microtubule strucutre (%): 67.93%
  Population with increased mitochondrial mass (%): 75.53%
  Population with membrane disruption (%): 0.00%
[14]
  Cell count normalized to cells treated with DMSO control: 0.6866
  Cell count per well: 310
  Population Fragmented Nuclei (%): 8.92%
  Population Healthy Nuclei (%): 72.12%
  Population Pyknosed Nuclei (%): 18.96%
  Population apoptotic cell (%): 45.10%
  Population cell that influence microtubule strucutre (%): 52.06%
  Population with increased mitochondrial mass (%): 79.38%
  Population with membrane disruption (%): 1.55%
[15]
  Cell count normalized to cells treated with DMSO control: 0.5428
  Cell count per well: 549
  Population Fragmented Nuclei (%): 15.79%
  Population Healthy Nuclei (%): 71.54%
  Population Pyknosed Nuclei (%): 12.67%
  Population apoptotic cell (%): 44.62%
  Population cell that influence microtubule strucutre (%): 57.49%
  Population with increased mitochondrial mass (%): 61.58%
  Population with membrane disruption (%): 2.45%
[16]
  Cell count normalized to cells treated with DMSO control: 0.5405
  Cell count per well: 369
  Population Fragmented Nuclei (%): 12.20%
  Population Healthy Nuclei (%): 75.00%
  Population Pyknosed Nuclei (%): 12.80%
  Population apoptotic cell (%): 55.81%
  Population cell that influence microtubule strucutre (%): 64.68%
  Population with increased mitochondrial mass (%): 73.81%
  Population with membrane disruption (%): 1.19%
